“And” between values parts separate entries of the source, which are not always exact repeats. Equal entries are not always repeated. Where two headings read alike, the source gives them in different places.
What was measured:
SMARCA2 = SMARCA2 (Homo sapiens, UniProt P51531); experiment: Ex vivo human whole blood assay, SMARCA2; format: cell-based; design: endogenous in cells; settings: for HillSlope (best-fit value) / DC50: four-parameter fit; for Bottom (best-fit value) / Span (best-fit value) / Top (best-fit value): four-parameter fit of % protein remaining; for DC50: read-out: EC50 (best-fit value); for LogEC50 (best-fit value): log10 of concentration (mol/l)
Sequence of SMARCA2 (P51531 whole entry): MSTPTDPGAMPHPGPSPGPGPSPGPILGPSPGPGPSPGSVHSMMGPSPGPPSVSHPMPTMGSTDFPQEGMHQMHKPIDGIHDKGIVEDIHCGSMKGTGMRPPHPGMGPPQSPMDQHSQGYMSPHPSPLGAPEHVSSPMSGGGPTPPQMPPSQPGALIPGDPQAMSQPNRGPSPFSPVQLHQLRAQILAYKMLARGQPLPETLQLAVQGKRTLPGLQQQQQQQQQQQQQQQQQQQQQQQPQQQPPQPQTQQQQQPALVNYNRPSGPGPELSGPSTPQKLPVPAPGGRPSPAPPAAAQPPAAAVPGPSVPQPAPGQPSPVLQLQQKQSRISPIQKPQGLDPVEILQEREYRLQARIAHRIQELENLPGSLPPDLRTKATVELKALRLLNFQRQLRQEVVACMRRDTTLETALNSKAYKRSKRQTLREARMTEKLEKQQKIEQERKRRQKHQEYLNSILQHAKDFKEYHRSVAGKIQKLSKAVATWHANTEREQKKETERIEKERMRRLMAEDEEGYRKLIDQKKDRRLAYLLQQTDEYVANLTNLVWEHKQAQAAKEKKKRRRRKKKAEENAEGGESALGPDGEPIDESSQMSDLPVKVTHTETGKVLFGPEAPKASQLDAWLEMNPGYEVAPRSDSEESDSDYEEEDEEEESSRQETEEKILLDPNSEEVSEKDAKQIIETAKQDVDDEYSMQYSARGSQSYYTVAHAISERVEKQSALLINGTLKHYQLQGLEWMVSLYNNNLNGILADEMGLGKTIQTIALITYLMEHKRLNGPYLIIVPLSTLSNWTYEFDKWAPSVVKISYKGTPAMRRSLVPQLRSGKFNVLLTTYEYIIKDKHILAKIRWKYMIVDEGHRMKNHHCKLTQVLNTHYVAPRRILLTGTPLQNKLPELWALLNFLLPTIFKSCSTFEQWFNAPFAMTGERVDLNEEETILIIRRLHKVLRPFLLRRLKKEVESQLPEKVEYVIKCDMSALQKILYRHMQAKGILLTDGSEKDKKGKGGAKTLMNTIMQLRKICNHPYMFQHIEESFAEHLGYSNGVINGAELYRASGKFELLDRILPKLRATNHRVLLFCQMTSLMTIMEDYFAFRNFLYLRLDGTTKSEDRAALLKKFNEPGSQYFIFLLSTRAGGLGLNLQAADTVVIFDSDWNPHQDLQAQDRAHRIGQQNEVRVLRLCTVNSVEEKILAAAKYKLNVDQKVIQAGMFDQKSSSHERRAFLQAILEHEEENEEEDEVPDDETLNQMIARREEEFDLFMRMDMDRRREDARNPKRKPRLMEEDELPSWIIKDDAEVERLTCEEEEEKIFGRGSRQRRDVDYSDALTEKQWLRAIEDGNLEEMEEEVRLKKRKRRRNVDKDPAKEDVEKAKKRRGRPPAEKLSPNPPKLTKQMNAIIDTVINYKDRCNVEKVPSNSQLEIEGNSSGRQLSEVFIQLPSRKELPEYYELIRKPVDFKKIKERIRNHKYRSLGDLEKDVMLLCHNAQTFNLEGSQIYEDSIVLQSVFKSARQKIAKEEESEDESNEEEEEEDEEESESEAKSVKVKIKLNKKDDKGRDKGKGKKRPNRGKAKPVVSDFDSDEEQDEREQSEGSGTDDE
Protocol: The assay was performed on human whole blood from three healthy donors, purchased from the Austrian Red Cross who always obtain samples under informed consent. […] Samples were pivoted at room temperature for 18 h in the dark. Subsequently, peripheral blood mononucleated cells (PBMCs) were isolated from individual aliquots using SepMate Tubes (StemCell) and Lymphoprep (StemCell) medium according to the manufacturer’s instructions and protein lysates were prepared using MSD Lysis buffer (Mesocale Discovery) supplemented with 1:100 Halt Phosphatase-Protease Inhibitor Cocktail (Thermo Fisher), 0.5 µl/ml benzonase (Novagen) and 10 mM DTT. SMARCA2 and SMARCA4 protein levels were determined using capillary electrophoresis (Bio-Techne) according to manufacturer’s instructions. Incubation with primary antibodies for SMARCA2 (Cell Signalling #11966 clone D9E8B RRID:AB_2797783 1:25), SMARCA4 (Abcam #ab110641 clone EPNCIR111A RRID:AB_10861578 1:25) and GAPDH (Abcam, #ab9485 RRID:AB_307275 1:1000) were performed for 30 min.

[1] = Cell viability assay (CellTiter Glo) in NCI-H1568; format: cell-based, human; settings: human, NCI-H1568 cells, NCI-H1568; log10 conc -5.90309 mol/l;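 note: percent of DMSO-treated control cells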
Summary of the method: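 This proliferation assay used human NCI-H1568 cells seeded at 500–2000 cells per well into 96-well white, clear-bottom plates containing 180–200 µl medium. Compounds were dispensed digitally the following day alongside a T0 reference measurement. Cells and CellTiter Glo reagent were brought to room temperature, incubated 10–20 min with shaking, and luminescence was read.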

A549 tumour xenograft = experiment: A549 xenograft tumour growth; format: in vivo, mouse; settings: for Tumor volume: Fig4g, 80 mg/kg, qd, per animal
Protocol: To establish subcutaneous tumours, mice were injected with 5 × 10^6 NCI-H1568 in PBS with 5% FCS or with 1 × 10^7 A549 cells in PBS with 5% FCS. Tumour diameters were measured with a caliper three times a week. The volume of each tumour (in mm^3) was calculated according to the formula [tumour volume = length × diameter^2 × π/6]. To monitor side effects of treatment, mice were inspected daily for abnormalities and body weight was determined daily after the start of treatment. Animals were sacrificed when the tumours reached a size of 1500 mm^3. Mice were randomised into treatment groups when the average tumour size reached ~210–220 mm^3. Group sizes were calculated individually for each tumour model based on tumour growth during model establishment experiments. A power analysis was performed using a sample size calculator (https://www.stat.ubc.ca/~rollin/stats/ssize/n2.html). For both models used in the study, 10 mice per group were used for each experiment. All administrations were dosed with 10 ml/kg (s.c. and oral). Control mice were dosed subcutaneously with 10% HP-β-CD in 50% Ringer solution and orally with 15% HP-β-CD, that means the control mouse treatment was corresponding to the solvent of the compounds. Compound 6 was dosed subcutaneously either in a d1-4 q3d, d6-8 q2d, d11-13 q2d treatment (Treatment 1) or a q3 or 4d treatment (Treatment 2).
For the evaluation of the statistical significance of tumour growth inhibition, a one-tailed nonparametric Mann-Whitney-Wilcoxon U-test was performed, based on the hypothesis that an effect would only be measurable in one direction (i.e. expectation of tumour inhibition but not tumour stimulation). Analysis was performed on the day indicated for each experiment. The p values obtained from the U-test were adjusted using the Bonferroni-Holm correction. By convention, p values ≤0.05 indicate significance of differences.

Structure (SMILES): Cc1ncsc1-c1ccc(C(CCC(C)CCN2CCC(c3ccc4c(c3)n(C3CCCC3)c3nc(=O)c5c(Br)cccc5n43)CC2)NC(=O)C2CC(O)CN2C(=O)C(NC(=O)C2(F)CC2)C(C)(C)C)cc1 (stereo not drawn) [ACBI2]
- % protein remaining, SMARCA2 (SMARCA2; Donor 1, log10[concentration (mol/l)] -6): 7.774% and 7.336% and 6.483%
- % protein remaining, SMARCA2 (SMARCA2; Donor 1, log10[concentration (mol/l)] -6.47712): 27.8553% and 21.8081% and 18.9544%
- % protein remaining, SMARCA2 (SMARCA2; Donor 1, log10[concentration (mol/l)] -6.95424): 43.7755% and 37.877% and 37.8583%
- % protein remaining, SMARCA2 (SMARCA2; Donor 1, log10[concentration (mol/l)] -7.43136): 67.8936% and 57.3294% and 53.6432%
- % protein remaining, SMARCA2 (SMARCA2; Donor 1, log10[concentration (mol/l)] -7.90848): 91.2009% and 93.1862% and 66.2599%
- % protein remaining, SMARCA2 (SMARCA2; Donor 1, log10[concentration (mol/l)] -8.38561): 88.6362% and 87.296% and 66.0015%
- % protein remaining, SMARCA2 (SMARCA2; Donor 1, log10[concentration (mol/l)] -8.86273): 73.7554% and 107.064% and 91.2397%
- HillSlope (best-fit value) (SMARCA2; Donor 1 SMARCA2): -0.8748
- Bottom (best-fit value) (SMARCA2; Donor 1 SMARCA2): -2.012%
- Span (best-fit value) (SMARCA2; Donor 1 SMARCA2): 93.51%
- Top (best-fit value) (SMARCA2; Donor 1 SMARCA2): 91.5%
- DC50 (SMARCA2; Donor 1 SMARCA2): 91.1 nM
- LogEC50 (best-fit value) (SMARCA2; Donor 1 SMARCA2): -7.04
- % protein remaining, SMARCA2 (SMARCA2; Donor 2, log10[concentration (mol/l)] -6): 7.351% and 9.811% and 14.3342%
- % protein remaining, SMARCA2 (SMARCA2; Donor 2, log10[concentration (mol/l)] -6.47712): 29.8249% and 32.3978% and 22.5296%
- % protein remaining, SMARCA2 (SMARCA2; Donor 2, log10[concentration (mol/l)] -6.95424): 46.7755% and 52.5543% and 72.1634%
- % protein remaining, SMARCA2 (SMARCA2; Donor 2, log10[concentration (mol/l)] -7.43136): 100.769% and 75.1426% and 71.9733%
- % protein remaining, SMARCA2 (SMARCA2; Donor 2, log10[concentration (mol/l)] -7.90848): 102.968% and 75.392% and 80.5753%
- % protein remaining, SMARCA2 (SMARCA2; Donor 2, log10[concentration (mol/l)] -8.38561): 67.4421% and 97.2734% and 86.3024%
- % protein remaining, SMARCA2 (SMARCA2; Donor 2, log10[concentration (mol/l)] -8.86273): 85.0643% and 65.7852% and 85.6876%
- HillSlope (best-fit value) (SMARCA2; Donor 2 SMARCA2): -1.742
- Bottom (best-fit value) (SMARCA2; Donor 2 SMARCA2): 8.097%
- Span (best-fit value) (SMARCA2; Donor 2 SMARCA2): 75.81%
- Top (best-fit value) (SMARCA2; Donor 2 SMARCA2): 83.91%
- DC50 (SMARCA2; Donor 2 SMARCA2): 172 nM
- LogEC50 (best-fit value) (SMARCA2; Donor 2 SMARCA2): -6.765
- % protein remaining, SMARCA2 (SMARCA2; Donor 3, log10[concentration (mol/l)] -6): 11.0787% and 14.9408% and 20.3816%
- % protein remaining, SMARCA2 (SMARCA2; Donor 3, log10[concentration (mol/l)] -6.47712): 32.5224% and 22.883% and 24.5065%
- % protein remaining, SMARCA2 (SMARCA2; Donor 3, log10[concentration (mol/l)] -6.95424): 43.403% and 45.8346% and 34.6157%
- % protein remaining, SMARCA2 (SMARCA2; Donor 3, log10[concentration (mol/l)] -7.43136): 68.0983% and 70.9906% and 84.1093%
- % protein remaining, SMARCA2 (SMARCA2; Donor 3, log10[concentration (mol/l)] -7.90848): 97.8509% and 97.5546% and 65.5857%
- % protein remaining, SMARCA2 (SMARCA2; Donor 3, log10[concentration (mol/l)] -8.38561): 73.4464% and 119.725% and 73.7076%
- % protein remaining, SMARCA2 (SMARCA2; Donor 3, log10[concentration (mol/l)] -8.86273): 88.433% and 116.976% and 110.86%
- HillSlope (best-fit value) (SMARCA2; Donor 3 SMARCA2): -0.9991
- Bottom (best-fit value) (SMARCA2; Donor 3 SMARCA2): 9.358%
- Span (best-fit value) (SMARCA2; Donor 3 SMARCA2): 92.07%
- Top (best-fit value) (SMARCA2; Donor 3 SMARCA2): 101.4%
- DC50 (SMARCA2; Donor 3 SMARCA2): 70.3 nM
- LogEC50 (best-fit value) (SMARCA2; Donor 3 SMARCA2): -7.153
- SMARCA2 degradation in human whole blood (SMARCA2; three healthy donors, 18 h): significant degradation of SMARCA2
- viability at 1.25 µM [1]: 0.898%
- TGI (A549 tumour xenograft; A549 xenograft, 80 mg/kg p.o. once daily, day 21): 47%
- Tumor volume (A549 tumour xenograft; day 1): 123.81 mm3 and 132.68 mm3 and 160.75 mm3 and 185.14 mm3 and 199.53 mm3 and 221.26 mm3 and 231.03 mm3 and 289.04 mm3 and 318.82 mm3 and 328.35 mm3
- Tumor volume (A549 tumour xenograft; day 4): 227.06 mm3 and 262.12 mm3 and 188.92 mm3 and 409.05 mm3 and 274.16 mm3 and 314.25 mm3 and 306.21 mm3 and 369.92 mm3 and 481.58 mm3 and 366.82 mm3
- Tumor volume (A549 tumour xenograft; day 7): 231.98 mm3 and 243.18 mm3 and 196.23 mm3 and 274.16 mm3 and 253.11 mm3 and 344.34 mm3 and 317.61 mm3 and 448.55 mm3 and 592.88 mm3 and 312.54 mm3
- Tumor volume (A549 tumour xenograft; day 9): 261.94 mm3 and 301.83 mm3 and 219.73 mm3 and 302.82 mm3 and 326.12 mm3 and 416.63 mm3 and 335.28 mm3 and 487.15 mm3 and 592.89 mm3 and 371.89 mm3
- Tumor volume (A549 tumour xenograft; day 11): 258.58 mm3 and 202.63 mm3 and 223.15 mm3 and 242.18 mm3 and 278.14 mm3 and 355.98 mm3 and 334.2 mm3 and 464.77 mm3 and 688.26 mm3 and 480.94 mm3
- Tumor volume (A549 tumour xenograft; day 16): 301.85 mm3 and 268.43 mm3 and 297.84 mm3 and 244.81 mm3 and 221.75 mm3 and 393.39 mm3 and 329.71 mm3 and 573.4 mm3 and 713.65 mm3 and 552.3 mm3
- Tumor volume (A549 tumour xenograft; day 18): 316.56 mm3 and 265.75 mm3 and 265.54 mm3 and 297.93 mm3 and 440.11 mm3 and 297.45 mm3 and 522.76 mm3 and 814.33 mm3 and 590.82 mm3
- Tumor volume (A549 tumour xenograft; day 21): 331.26 mm3 and 257.14 mm3 and 246.03 mm3 and 472.38 mm3 and 341.87 mm3 and 428.61 mm3 and 821.5 mm3 and 487.26 mm3
- Tumor volume (A549 tumour xenograft; day 23): 322.32 mm3 and 225.79 mm3 and 259.68 mm3 and 527.19 mm3 and 270.43 mm3 and 777.27 mm3 and 455.64 mm3

Reference: paper PMC9551036, “A selective and orally bioavailable VHL-recruiting PROTAC achieves SMARCA2 degradation in vivo” (Nature Communications, 2022)
